Assay results as given in patent publication US20080269339A1, “COMBINED USE OF EGF PATHWAY INHIBITORS AND DIFFERENTIATION PROMOTING COMPOUNDS” (priority 2007, published 2008).

System: Human keratinocytes
Assay: Cornified envelope formation (terminal differentiation) in confluent human keratinocyte culture
Assay type: cell-based
Settings: for keratinocyte differentiation (percent of cornified envelopes): agent alone vs vehicle control, confluent keratinocytes, 5 days (FIG. 2, FIG. 3)
Experimental: In this study, Keratinocyte Cell Culture-Neonatal foreskin kerinocytes, purchased from Lonza (Walkersville, Md., USA), were grown in keratinocyte-SFM (Gilbro-BRL, Gaithersburg, Md., USA). This complete medium consists of keratinocyte basal medium and supplements (Gibco-BRL), human combinant EGF (5 ng/mL) and bovine pituitary extract (50 μg protein/mL). The calcium concentration in this medium is 0.09 mM.
Unless indicated in the description for a particular figure set forth below, confluent fifth passage keratinocytes were used, with treatments beginning 2 days after the last addition of complete medium. The media was changed and the cells were pretreated with PD153035 (300 nM) for two hours. Media was again changed to contain PD153035 (300 nM) and epidermal growth factor (10 ng/mL) and left for 24 hours. The media was changed a final time to basal media supplemented with 1 mM CaCl2 and 0.1% bovine serum albumin with the indicated chemical additions. The cells were incubated at 37° C., 5% CO2 for 5 days before the comified envelopes were scored. The vehicle, DMSO, was used as the control for both PD153035 and TCDD.
In reference to FIG. 2, Human keratinocytes were grown to confluence and treated with vehicle of media (control), sodium butyrate, epidermal growth factor (EGF) or a combination of EGF and NAB for 5 days. Cornified envelope formation is an endpoint of terminal differentiation. The percent of comified envelopes was calculated by dividing the number of cornified envelopes by the number of cells (times 100).
In FIG. 3, Human keratinocytes were grown to confluence and treated with vehicle of dimethylsulfoxide (DMSO), 2,3,7,8-tetrachlorodibenzo-p-dioxin (TCDD), epidermal growth factor (EFG) or a combination of EGF and TCDD for 5 days. Comified envelope formation is an endpoint of terminal cell differentiation. The percent of cornified envelopes was calculated by dividing the number of cornified envelopes by the number of cells (times 100).
In FIG. 4, Human keratinocytes were grown to confluence and treated with vehicle of DMSO (−/−), sodium butyrate (NaB) alone (−/+); epidermal growth factor (EGF) alone (+/−) or a combination of EGF and NaB (+/+) with or without PD153035 for 5 days. Comified envelope formation is an endpoint of terminal cell differentiation. The average percent (n=3, +/−std dev) of cornified envelopes was calculated by dividing the number of cornified envelopes by the number of cells (times 100).
In FIG. 5, Human keratinocytes were grown to confluence and treated with vehicle of DMSO (−/−), TCDD alone (−/+), epidermal growth factor (EGF) alone (+/−) or a combination of EGF and TCDD (+/+) with or without PD153035 for 5 days. Cornified envelope formation is an endpoint of terminal cell differentiation. The average percent (n=3, +/−std dev) of comified envelopes was calculated by dividing the number of cornified envelopes by the number of cells (times 100).

With “EGF: epidermal growth factor, a growth factor supporting the proliferation of epithelial cells” the “effect on TCDD increase in keratinocyte differentiation (percent of cornified envelopes)” value (combination of EGF and TCDD, 5 days (FIG. 3)) was “inhibited” and the “effect on sodium butyrate increase in keratinocyte differentiation (percent of cornified envelopes)” value (combination of EGF and sodium butyrate, 5 days (FIG. 2)) was “inhibited”.
In the case of `Clc1cc2c(cc1Cl)Oc1cc(Cl)c(Cl)cc1O2` [TCDD, 2,3,7,8-tetrachlorodibenzo-p-dioxin], the “keratinocyte differentiation (percent of cornified envelopes)” value is reported as “increases in keratinocyte differentiation”.
With `COc1cc2ncnc(Nc3cccc(Br)c3)c2cc1OC` [PD153035] the “effect on sodium butyrate mediated differentiation (percent of cornified envelopes)” value (PD153035 300 nM, in the presence of EGF 10 ng/mL, 5 days, n=3 (FIG. 4)) was “increasing sodium butyrate mediated differentiation” and the “effect on TCDD-mediated differentiation (percent of cornified envelopes)” value (PD153035 300 nM, in the presence of EGF 10 ng/mL, 5 days, n=3 (FIG. 5)) was “increasing TCDD-mediated differentiation”.
In the case of `CCCC(=O)[O-].[Na+]` [sodium butyrate], the “keratinocyte differentiation (percent of cornified envelopes)” value is reported as “increases in keratinocyte differentiation”.
